ChEMBL document CHEMBL1201862, “PubChem BioAssay data set” (2004)
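Growth conditions: 96-well plates. Treatment: test compound, 48 hours, 5 concentrations. Analysis: linear interpolation between bracketing concentrations; unreached endpoints set to highest concentration. Here, GI50 denotes the concentration required for 50% inhibition of growth.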 Calls of active or inactive are those of the source. No stated cut-off is given here; in the data, active = GI50 up to about 1.1 µM and inactive = higher.

What was measured:
Experiment in all cases: inhibition of tumour cell growth, NCI panel, 48 h
[1] = system: NCI-H226
[2] = system: SK-MEL-2
[3] = system: OVCAR-5
[4] = system: CAKI-1
[5] = system: BT-549
[6] = system: Malme-3M
[7] = system: A498
[8] = system: NCI-H460
[9] = system: SR
[10] = system: 786-0
[11] = system: MDA-MB-231
[12] = system: HCT-15
[13] = system: SF-539
[14] = system: NCI-H23
[15] = system: SK-OV-3
[16] = system: COLO 205
[17] = system: TK-10
[18] = system: UACC-62
[19] = system: MDA-MB-435
[20] = system: MCF7
[21] = system: UO-31
[22] = system: HOP-92
[23] = system: HCT-116
[24] = system: SK-MEL-5
[25] = system: T47D
[26] = system: DU-145
[27] = system: RPMI-8226
[28] = system: A549
[29] = system: PC-3
[30] = system: EKVX
[31] = system: SF-295
[32] = system: SNB-75
[33] = system: M14
[34] = system: HT-29
[35] = system: SW-620
[36] = system: UACC-257
[37] = system: U-251
[38] = system: ACHN
[39] = system: RXF 393
[40] = system: SK-MEL-28
[41] = system: MDA-N
[42] = system: OVCAR-3
[43] = system: OVCAR-4
[44] = system: NCI-H522
[45] = system: MOLT-4
[46] = system: OVCAR-8
[47] = system: KM12
[48] = system: SNB-19
[49] = system: Hs-578T
[50] = system: K562
[51] = system: IGROV-1
[52] = system: LOX IMVI
[53] = system: NCI/ADR-RES
[54] = system: CCRF-CEM
[55] = system: HL-60
[56] = system: HOP-62
[57] = system: SN12C
[58] = system: HCC 2998
[59] = system: SF-268

With `NC(=S)NNCC(=O)CC(O)(C(F)(F)F)C(F)(F)Cl` (centres undefined) the GI50 [1] was > 100 µM (inactive), the GI50 [2] was > 100 µM (inactive) and the GI50 [3] was > 100 µM (inactive). For the same compound, the GI50 [4] was > 100 µM (inactive), the GI50 [5] was > 100 µM (inactive) and the GI50 [6] was > 100 µM (inactive). For the same compound, the GI50 [7] was > 100 µM (inactive), the GI50 [8] was 63.2 µM (inactive) and the GI50 [9] was > 100 µM (inactive). For the same compound, the GI50 [10] was > 100 µM (inactive), the GI50 [11] was > 100 µM (inactive) and the GI50 [12] was > 100 µM. The GI50 [13] was > 100 µM (inactive), the GI50 [14] was > 100 µM (inactive) and the GI50 [15] was > 100 µM (inactive). The GI50 [16] was > 100 µM (inactive), the GI50 [17] was > 100 µM (inactive) and the GI50 [18] was > 100 µM (inactive). The GI50 [19] was > 100 µM (inactive), the GI50 [20] was > 100 µM (inactive) and the GI50 [21] was > 100 µM (inactive). For the same compound, the GI50 [22] was > 100 µM (inactive), the GI50 [23] was > 100 µM (inactive) and the GI50 [24] was > 100 µM (inactive). For the same compound, the GI50 [25] was 64.7 µM (inactive), the GI50 [26] was > 100 µM (inactive) and the GI50 [27] was > 100 µM (inactive). For the same compound, the GI50 [28] was > 100 µM (inactive), the GI50 [29] was > 100 µM (inactive) and the GI50 [30] was > 100 µM (inactive). The GI50 [31] was > 100 µM (inactive), the GI50 [32] was 29.6 µM (inactive) and the GI50 [33] was > 100 µM (inactive). The GI50 [34] was > 100 µM (inactive), the GI50 [35] was > 100 µM (inactive) and the GI50 [36] was > 100 µM (inactive). The GI50 [37] was > 100 µM (inactive), the GI50 [38] was 54.5 µM (inactive) and the GI50 [39] was 38.5 µM (inactive). The GI50 [40] was > 100 µM (inactive), the GI50 [41] was > 100 µM (inactive) and the GI50 [42] was > 100 µM (inactive). The GI50 [43] was > 100 µM (inactive), the GI50 [44] was > 100 µM (inactive) and the GI50 [45] was > 100 µM (inactive). The GI50 [46] was > 100 µM (inactive), the GI50 [47] was > 100 µM (inactive) and the GI50 [48] was > 100 µM (inactive). For the same compound, the GI50 [49] was > 100 µM (inactive), the GI50 [50] was > 100 µM (inactive) and the GI50 [51] was > 100 µM (inactive). For the same compound, the GI50 [52] was > 100 µM (inactive), the GI50 [53] was > 100 µM (inactive) and the GI50 [54] was > 100 µM (inactive). For the same compound, the GI50 [55] was 97.3 µM (inactive).

With `CCCCOc1ccc2c(c1)CC[C@@H]1[C@@H]2CC[C@]2(C)C(=O)N(CCCC)C(=O)C[C@@H]12` the GI50 [1] was > 100 µM (inactive), the GI50 [2] was > 100 µM (inactive) and the GI50 [3] was > 100 µM (inactive). The GI50 [4] was > 100 µM (inactive), the GI50 [5] was 87.9 µM (inactive) and the GI50 [6] was > 100 µM (inactive). For the same compound, the GI50 [7] was > 100 µM (inactive), the GI50 [8] was > 100 µM (inactive) and the GI50 [9] was > 100 µM (inactive). The GI50 [11] was > 100 µM (inactive), the GI50 [12] was > 100 µM and the GI50 [14] was > 100 µM (inactive). The GI50 [15] was > 100 µM (inactive), the GI50 [16] was 91.8 µM (inactive) and the GI50 [56] was > 100 µM (inactive). The GI50 [18] was > 100 µM (inactive), the GI50 [19] was > 100 µM (inactive) and the GI50 [20] was > 100 µM (inactive). The GI50 [21] was > 100 µM (inactive), the GI50 [22] was > 100 µM (inactive) and the GI50 [23] was > 100 µM (inactive). For the same compound, the GI50 [24] was 26.3 µM (inactive), the GI50 [25] was > 100 µM (inactive) and the GI50 [26] was > 100 µM (inactive). For the same compound, the GI50 [27] was 65.9 µM (inactive), the GI50 [29] was 25.1 µM (inactive) and the GI50 [31] was > 100 µM (inactive). The GI50 [32] was > 100 µM (inactive), the GI50 [33] was > 100 µM (inactive) and the GI50 [34] was > 100 µM (inactive). For the same compound, the GI50 [37] was > 100 µM (inactive), the GI50 [41] was > 100 µM (inactive) and the GI50 [42] was > 100 µM (inactive). The GI50 [57] was > 100 µM (inactive), the GI50 [44] was > 100 µM (inactive) and the GI50 [45] was 30.4 µM (inactive). The GI50 [46] was > 100 µM (inactive), the GI50 [47] was > 100 µM (inactive) and the GI50 [48] was > 100 µM (inactive). The GI50 [49] was > 100 µM (inactive), the GI50 [50] was 6.37 µM (inactive) and the GI50 [58] was > 100 µM (inactive). For the same compound, the GI50 [51] was > 100 µM (inactive), the GI50 [53] was > 100 µM (inactive) and the GI50 [54] was 44.6 µM (inactive). For the same compound, the GI50 [55] was 44.4 µM (inactive).

For `CC1=NN(c2ccc(S(=O)(=O)O)cc2)C(=O)/C1=C/c1ccc(Cl)cc1.c1ccncc1`, the GI50 [1] was > 100 µM (inactive), the GI50 [2] was > 100 µM (inactive) and the GI50 [3] was > 100 µM (inactive). The GI50 [4] was > 100 µM (inactive), the GI50 [5] was > 100 µM (inactive) and the GI50 [6] was > 100 µM (inactive). For the same compound, the GI50 [7] was > 100 µM (inactive), the GI50 [8] was > 100 µM (inactive) and the GI50 [9] was > 100 µM (inactive). For the same compound, the GI50 [10] was > 100 µM (inactive), the GI50 [11] was > 100 µM (inactive) and the GI50 [12] was > 100 µM. For the same compound, the GI50 [13] was > 100 µM (inactive), the GI50 [14] was > 100 µM (inactive) and the GI50 [15] was > 100 µM (inactive). For the same compound, the GI50 [16] was > 100 µM (inactive), the GI50 [17] was > 100 µM (inactive) and the GI50 [56] was > 100 µM (inactive). For the same compound, the GI50 [18] was > 100 µM (inactive), the GI50 [19] was > 100 µM (inactive) and the GI50 [20] was > 100 µM (inactive). For the same compound, the GI50 [21] was > 100 µM (inactive), the GI50 [22] was > 100 µM (inactive) and the GI50 [23] was > 100 µM (inactive). The GI50 [24] was > 100 µM (inactive), the GI50 [25] was > 100 µM (inactive) and the GI50 [26] was > 100 µM (inactive). The GI50 [27] was > 100 µM (inactive), the GI50 [28] was > 100 µM (inactive) and the GI50 [29] was > 100 µM (inactive). For the same compound, the GI50 [30] was > 100 µM (inactive), the GI50 [31] was > 100 µM (inactive) and the GI50 [32] was > 100 µM (inactive). For the same compound, the GI50 [33] was > 100 µM (inactive), the GI50 [34] was > 100 µM (inactive) and the GI50 [35] was > 100 µM (inactive). For the same compound, the GI50 [36] was > 100 µM (inactive), the GI50 [37] was > 100 µM (inactive) and the GI50 [38] was > 100 µM (inactive). For the same compound, the GI50 [39] was > 100 µM (inactive), the GI50 [40] was > 100 µM (inactive) and the GI50 [41] was > 100 µM (inactive). The GI50 [42] was > 100 µM (inactive), the GI50 [57] was > 100 µM (inactive) and the GI50 [43] was > 100 µM (inactive). The GI50 [44] was > 100 µM (inactive), the GI50 [45] was > 100 µM (inactive) and the GI50 [46] was > 100 µM (inactive). For the same compound, the GI50 [47] was > 100 µM (inactive), the GI50 [48] was > 100 µM (inactive) and the GI50 [49] was > 100 µM (inactive). For the same compound, the GI50 [50] was > 100 µM (inactive), the GI50 [59] was > 100 µM (inactive) and the GI50 [51] was > 100 µM (inactive). The GI50 [52] was > 100 µM (inactive), the GI50 [53] was > 100 µM (inactive) and the GI50 [54] was > 100 µM (inactive). The GI50 [55] was > 100 µM (inactive).
